How the values were obtained:
[1] = tested on: Caco-2 cells; settings: concentrations of 10-8 and 10-9; cited from earlier work
[2] = tested on: IL-8 mRNA; assay: Inhibition of IL-1β stimulated IL-8 gene expression in Caco-2 cells (Northern blot); assay type: cell-based
Procedure: Caco-2 cells (American Type Culture Collection, Rockville, Maryland) were plated at a density of 4×10^4 cells per cm^2 in 10 cm dishes containing Dulbecco's modified Eagle's medium (DMEM) with 10% fetal bovine serum and penicillin/streptomycin as described by Wu et al., J. Biol. Chem., 1992, 267:7863-7870 and Traber et al., Mol. Cell. Biol., 1992, 12:3614-3627. At days 5 (pre-confluent state) and 18 (post-confluent state) the cells were stimulated with complete medium containing 5 ng/ml of IL-1β (R and D Systems, Minneapolis, MN). Total RNA was isolated from these cells 2 and 4 hours after the addition of IL-1 containing medium as well as from a control cell population not treated with IL-1β in accordance with procedures described by Chomczynski, P. and Sacchi, N., Anal. Biochem., 1987, 162:156-159. Ten micrograms of RNA for each sample was electrophoretically separated, transferred to a nylon membrane, and UV crosslinked in accordance with procedures described by Traber et al., Am. J. Physiol., 1992, 262:G123-G130. A cDNA probe for IL-8 was prepared by RT-PCR of total RNA from Caco-2 cells stimulated with IL-1 for 2 hours. Random hexamers were used for reverse transcription of the RNA using reaction conditions similar to those described by Wu et al., Gastroenterology, 1993, 105:837-844. A 277 bp cDNA was amplified from the RT reaction by PCR using the 5′ primer IL-8(+103) and the 3′ primer IL-8(EX4), cloned using a TA-vector (Marchuk et al., Nuc. Acids Res., 1991, 19:1154), and labeled with ^32p using a Random Primers DNA labeling System (Gibco BRL, Gaithersburg, Md.). Hybridization of the Northern blots were performed using conditions as described by Huang et al., Mol. Endo., 1993, 7:1391-1398.

[3] = tested on: murine erythroleukemia cells; settings: in vitro; cited from earlier work
[4] = tested on: Caco-2 cells; assay: Caco-2 cell toxicity / cell death during treatment with differentiating agents
[5] = tested on: alkaline phosphatase mRNA; assay: Induction of alkaline phosphatase mRNA, marker for intestinal epithelial cell differentiation, in Caco-2 cells; assay type: cell-based
[6] = tested on: cell proliferation; settings: same dose; cited from earlier work
[7] = orally or intraperitoneally, 26.5 mmole/kg; cited from earlier work
[8] = e.g. six premature infants fed butyrates for 4 days at about 20 mmol/kg/day; cited from earlier work

## C=C1/C(=C\C=C2/CCC[C@]3(C)[C@@H]([C@H](C)CCCC(C)(C)O)CC[C@@H]23)C[C@@H](O)C[C@@H]1O [1,25-(OH)2D3, 1,25-dihydroxyvitamin D3]
[1]
  Caco-2 cell proliferation: inhibit
  markers of intestinal epithelial differentiation: induce
[2]; concentrations of 10-8 and 10-9, IL-1β 5 ng/ml for 2 hours
  steady state IL-8 mRNA expression: decrease

## CCCC(=O)O [butyric acid]
[3]
  erythroid differentiation of erythroleukemia: induced

## CCCC(=O)OCC(O)CO (centres unmarked) [monobutyrin]
[3]
  erythroid differentiation of erythroleukemia: induced
  potency relative to butyric acid on a molar basis: much less potent

## CCCC(=O)[O-].[Na+] [sodium butyrate]
[4]; Caco-2 cells
  concentration causing significant toxicity and cell death: higher than 2.5 mM
[4]; sodium butyrate 0.1 to 2.5 mM
  tolerance by Caco-2 cells / cell death: well-tolerated by Caco-2 cells without any evidence of cell death
[2]; Caco-2 cells, IL-1β 5 ng/ml for 2 hours
  concentration of maximal inhibition of IL-8 mRNA expression: 2.5 mM
[2]; sodium butyrate 0.1 to 2.5 mM, 3 days, IL-1β 5 ng/ml for 2 hours
  steady state levels of IL-8 mRNA: dose dependent reduction
[2]; sodium butyrate at concentrations higher than 2.5 mM
  expression of IL-8 mRNA: increased expression
[5]; sodium butyrate 2.5 mM
  mRNA for alkaline phosphatase: induction

## CCC(=O)[O-].[Na+] [sodium propionate]
[4]; maximum concentration studied, 20 mM
  cell toxicity or death: did not lead to cell toxicity or death
[2]; sodium propionate 0.1 to 20 mM, IL-1β 5 ng/ml for 2 hours
  IL-8 mRNA expression: inhibited IL-8 mRNA expression in a dose dependent fashion
[5]; sodium propionate 0.1 to 20 mM
  alkaline phosphatase mRNA expression: induction

## CCCC(=O)OCC(COC(=O)CCC)OC(=O)CCC [tributyrin]
[6]
  effectiveness in inhibiting cell proliferation relative to sodium butyrate: only as effective as sodium butyrate
[7]
  toxicity in mice: No toxicity
[8]
  tolerability in humans: well tolerated
[2]; in vitro, differentiation and inhibition of IL-8 gene expression
  concentration giving identical biological response, relative to sodium butyrate: one third
[3]
  erythroid differentiation of erythroleukemia: induced
  potency relative to butyric acid on a molar basis: 3- to 4 fold

## phenylacetate
[4]; any concentration of phenylacetate studied (2.5 to 10 mM)
  Caco-2 cell toxicity: no evidence of Caco-2 cell toxicity
[2]; phenylacetate 2.5 to 10 mM, IL-1β 5 ng/ml for 2 hours
  IL-8 mRNA expression: Dose dependent inhibition

Reference: patent publication US20020137780A1, “Differentiating agents for the treatment of inflammatory intestinal diseases” (priority 1995, published 2002)
